Results taken from paper PMC5976239 (Journal of medicinal chemistry, 2017).
≈ marks a conversion by molar mass, not a printed value.

Columns and labels:
[1] = tested on: Candida albicans ATCC 10231 (A); assay: MIC determination by in vitro antifungal assay; assay type: cell-based; conditions: ATCC10231, 48 h, read-out: MIC (MIC-0)
[2] = tested on: C. albicans ATCC 64124(R) (B); assay: MIC determination by in vitro antifungal assay; assay type: cell-based; conditions: Candida albicans, ATCC64124, 48 h, read-out: MIC (MIC-0)
[3] = tested on: C. albicans ATCC MYA-2876(S) (C); assay: MIC determination by in vitro antifungal assay; assay type: cell-based; conditions: Candida albicans, 48 h, read-out: MIC (MIC-0)
[4] = tested on: C. albicans ATCC 90819(R) (D); assay: MIC determination by in vitro antifungal assay; assay type: cell-based; conditions: Candida albicans, ATCC90819, 48 h, read-out: MIC (MIC-0)
[5] = tested on: C. albicans ATCC MYA-2310(S) (E); assay: MIC determination by in vitro antifungal assay; assay type: cell-based; conditions: Candida albicans, 48 h, read-out: MIC (MIC-0)
[6] = tested on: C. albicans ATCC MYA-1237(R) (F); assay: MIC determination by in vitro antifungal assay; assay type: cell-based; conditions: Candida albicans, 48 h, read-out: MIC (MIC-0)
[7] = tested on: C. albicans ATCC MYA-1003(R) (G); assay: MIC determination by in vitro antifungal assay; assay type: cell-based; conditions: Candida albicans, 48 h, read-out: MIC (MIC-0)
[8] = tested on: Aspergillus flavus ATCC MYA-3631 (K); assay: MIC determination against filamentous fungi; assay type: cell-based; conditions: 48 h, read-out: MIC (MIC-0)
[9] = tested on: Aspergillus nidulans ATCC 38163 (L); assay: MIC determination against filamentous fungi; assay type: cell-based; conditions: ATCC38163, 48 h, read-out: MIC (MIC-0)
[10] = tested on: Aspergillus terreus ATCC MYA-3633 (M); assay: MIC determination against filamentous fungi; assay type: cell-based; conditions: 48 h, read-out: MIC (MIC-0)
[11] = tested on: C. albicans, non-albicans Candida, and Aspergillus strains; assay: Antifungal activity over the panel of 13 fungal strains; assay type: cell-based; conditions: for MIC: read-out: antifungal activity class based on MIC values
[12] = Hemolytic activity assay; assay type: cell-based; conditions: mouse, murine red blood cells (mRBCs)
[13] = tested on: Candida albicans ATCC 10231 (A); assay: MIC determination in the presence and absence of FBS; assay type: cell-based; conditions: strains A, J, and L; +10% FBS versus no FBS
[14] = tested on: C. albicans ATCC 64124 (strain B) biofilms; assay: Biofilm assay

CCCCCCCCCN1CCNCC1 [Compound 4, 1-Nonyl Piperazine] showed an MIC [1] of 31.3 µg/mL (≈ 147 µM), an MIC [2] of over 31.3 µg/mL and an MIC [3] of over 31.3 µg/mL. For the same compound, the MIC [4] was 31.3 µg/mL (≈ 147 µM), the MIC [5] was 31.3 µg/mL (≈ 147 µM) and the MIC [6] was 31.3 µg/mL (≈ 147 µM). The MIC [7] was over 31.3 µg/mL, the MIC [8] was 31.3 µg/mL (≈ 147 µM) and the MIC [9] was over 31.3 µg/mL. For the same compound, the MIC [10] was over 31.3 µg/mL and the MIC [11] was at least 31.3 µg/mL.
In the case of CCCCCN1CCN(CC(O)(Cn2cncn2)c2ccc(F)cc2F)CC1 (centres unmarked) [Compound 17, 2-(2,4-Difluorophenyl)-1-(1H-1,2,4-triazol-1-yl)-3-(4-pentylpiperazine)propan-2-ol], the MIC [1] is reported as over 31.3 µg/mL, the MIC [2] is reported as over 31.3 µg/mL and the MIC [3] is reported as over 31.3 µg/mL. For the same compound, the MIC [4] was 31.3 µg/mL (≈ 79.5 µM), the MIC [5] was over 31.3 µg/mL and the MIC [6] was over 31.3 µg/mL. The MIC [7] was over 31.3 µg/mL, the MIC [8] was over 31.3 µg/mL and the MIC [9] was over 31.3 µg/mL. The MIC [10] was over 31.3 µg/mL and the “antifungal activity (in words)” value ([11]; overall, fungal strains tested (27 except strains K and L)) was “basically inactive”.
Work on CN1CCNCC1 [Compound 1, N-methylpiperazine] yielded an MIC [1] of over 31.3 µg/mL, an MIC [2] of over 31.3 µg/mL and an MIC [3] of over 31.3 µg/mL. For the same compound, the MIC [4] was over 31.3 µg/mL, the MIC [5] was over 31.3 µg/mL and the MIC [6] was over 31.3 µg/mL. The MIC [7] was over 31.3 µg/mL, the MIC [8] was over 31.3 µg/mL and the MIC [9] was over 31.3 µg/mL. It also gave an MIC [10] of over 31.3 µg/mL and an MIC [11] of at least 31.3 µg/mL.
With CCCCCCCCCCCN1CCN(CC(O)(Cn2cncn2)c2ccc(F)cc2F)CC1 (centres unmarked) [Compound 21, 2-(2,4-Difluorophenyl)-1-(1H-1,2,4-triazol-1-yl)-3-(4-undecylpiperazine)propan-2-ol] the MIC [1] was 1.95 µg/mL (≈ 4.08 µM), the MIC [2] was 15.6 µg/mL (≈ 32.7 µM) and the MIC [3] was 7.8 µg/mL (≈ 16.3 µM). It also gave an MIC [4] of 15.6 µg/mL (≈ 32.7 µM), an MIC [5] of 15.6 µg/mL (≈ 32.7 µM) and an MIC [6] of 15.6 µg/mL (≈ 32.7 µM). For the same compound, the MIC [7] was 15.6 µg/mL (≈ 32.7 µM), the MIC [8] was 1.95 µg/mL (≈ 4.08 µM) and the MIC [9] was 1.95 µg/mL (≈ 4.08 µM). It also gave an MIC [10] of 1.95 µg/mL (≈ 4.08 µM).
CCCCCN1CCNCC1 [Compound 2, N-pentylpiperazine] showed an MIC [1] of over 31.3 µg/mL, an MIC [2] of over 31.3 µg/mL and an MIC [3] of over 31.3 µg/mL. For the same compound, the MIC [4] was over 31.3 µg/mL, the MIC [5] was over 31.3 µg/mL and the MIC [6] was over 31.3 µg/mL. The MIC [7] was over 31.3 µg/mL, the MIC [8] was over 31.3 µg/mL and the MIC [9] was over 31.3 µg/mL. For the same compound, the MIC [10] was over 31.3 µg/mL and the MIC [11] was at least 31.3 µg/mL.
In the case of CCCCCCCCCCCN1CCNCC1 [Compound 6, 1-Undecyl Piperazine], the MIC [1] is reported as 7.8 µg/mL (≈ 32.4 µM), the MIC [2] is reported as 7.8 µg/mL (≈ 32.4 µM) and the MIC [3] is reported as 15.6 µg/mL (≈ 64.9 µM). For the same compound, the MIC [4] was 7.8 µg/mL (≈ 32.4 µM), the MIC [5] was 7.8 µg/mL (≈ 32.4 µM) and the MIC [6] was 7.8 µg/mL (≈ 32.4 µM). The MIC [7] was 15.6 µg/mL (≈ 64.9 µM), the MIC [8] was 31.3 µg/mL (≈ 130 µM) and the MIC [9] was 15.6 µg/mL (≈ 64.9 µM). The MIC [10] was 15.6 µg/mL (≈ 64.9 µM) and the “antifungal activity class based on MIC values” ([11]; against all fungal strains tested (5 and 6 except strain K)) was “moderately active”.
For CCCCCCCCCCCCCN1CCNCC1 [Compound 8, 1-Tridecyl Piperazine], the MIC [1] was 0.975 µg/mL (≈ 3.63 µM), the MIC [2] was 0.975 µg/mL (≈ 3.63 µM) and the MIC [3] was 1.95 µg/mL (≈ 7.26 µM). The MIC [4] was 0.975 µg/mL (≈ 3.63 µM), the MIC [5] was 1.95 µg/mL (≈ 7.26 µM) and the MIC [6] was 1.95 µg/mL (≈ 7.26 µM). For the same compound, the MIC [7] was 1.95 µg/mL (≈ 7.26 µM), the MIC [8] was 1.95 µg/mL (≈ 7.26 µM) and the MIC [9] was 0.975 µg/mL (≈ 3.63 µM). The MIC [10] was 1.95 µg/mL (≈ 7.26 µM) and the MIC [11] was 0.015 to 1.95 µg/mL (≈ 0.0559 to 7.26 µM).
Work on CN1CCN(CC(O)(Cn2cncn2)c2ccc(F)cc2F)CC1 (centres unmarked) [Compound 16] yielded an MIC [1] of 7.8 µg/mL (≈ 23.1 µM), an MIC [2] of 31.3 µg/mL (≈ 92.8 µM) and an MIC [3] of 7.8 µg/mL (≈ 23.1 µM). For the same compound, the MIC [4] was 31.3 µg/mL (≈ 92.8 µM), the MIC [5] was 7.8 µg/mL (≈ 23.1 µM) and the MIC [6] was 31.3 µg/mL (≈ 92.8 µM). For the same compound, the MIC [7] was 31.3 µg/mL (≈ 92.8 µM), the MIC [8] was 31.3 µg/mL (≈ 92.8 µM) and the MIC [9] was 0.975 µg/mL (≈ 2.89 µM). It also gave an MIC [10] of 31.3 µg/mL (≈ 92.8 µM) and a hemolysis at 60 min, 62.5 µg/mL [12] of under 10%.
Compound CCCCCCCCCN1CCN(CC(O)(Cn2cncn2)c2ccc(F)cc2F)CC1 (centres unmarked) [Compound 19, 2-(2,4-Difluorophenyl)-1-(1H-1,2,4-triazol-1-yl)-3-(4-nonylpiperazine)propan-2-ol] has an MIC [1] of 0.975 µg/mL (≈ 2.17 µM), an MIC [2] of 7.8 µg/mL (≈ 17.3 µM) and an MIC [3] of 3.9 µg/mL (≈ 8.67 µM). It also gave an MIC [4] of 7.8 µg/mL (≈ 17.3 µM), an MIC [5] of 15.6 µg/mL (≈ 34.7 µM) and an MIC [6] of 15.6 µg/mL (≈ 34.7 µM). For the same compound, the MIC [7] was 15.6 µg/mL (≈ 34.7 µM), the MIC [8] was 0.48 µg/mL (≈ 1.07 µM) and the MIC [9] was 0.975 µg/mL (≈ 2.17 µM). For the same compound, the MIC [10] was 1.95 µg/mL (≈ 4.34 µM).
For CCCCCCCCCCN1CCN(CC(O)(Cn2cncn2)c2ccc(Cl)cc2Cl)CC1 (centres unmarked) [Compound 25, 2-(2,4-Dichlorophenyl)-1-(1H-1,2,4-triazol-1-yl)-3-(4-decylpiperazine)propan-2-ol], the MIC [3] was 7.8 µg/mL (≈ 15.7 µM), the MIC [5] was 7.8 µg/mL (≈ 15.7 µM) and the MIC [6] was 7.8 µg/mL (≈ 15.7 µM). For the same compound, the MIC [7] was 7.8 µg/mL (≈ 15.7 µM), the “antifungal activity in the presence of FBS (in words)” value [13] was “retained their full antifungal activity” and the hemolysis at 60 min, 7.8 µg/mL [12] was 22%. The “increase in MIC in biofilms (SMIC50 and SMIC80 versus MIC in liquid cultures)” value [14] was 1–2 fold.
